Laboratory results as given in patent publication US5840843A, “Synthetic polypeptides as inhibitors of HIV-1” (priority 1995, dated 1998).
Bridge positions count the residues as written; N and C are the ends. Ends that are not written are not given here. I, II: the chains in the order shown.

What was measured:
[1] = test system: HIV-1IIIB infected H9 cells; experiment: Inhibition of fusion of HIV-1IIIB infected H9 cells with uninfected H9 cells (syncytium count); assay type: cell-based
Method: The inhibitory effect of the peptide of the present invention on the fusion of HIV-1 infected cells with uninfected cells was also determined. In brief, 1.25×10^4 HIV-1IIIB infected H9 cells were mixed with the peptide and an equal number of uninfected H9 cells.

HIV-1 isolate SF2 = experiment: Inhibition of infection by HIV-1 isolate SF2; assay type: cell-based; conditions: FIG. 6
Method: (§1) For virus inhibition assays, H9, MT-2 and U937 cells were used as target cells. Five HIV-1 isolates (IIIB, MN, RF, SF2, and an AZT-resistant mutant) were cultivated in MT-2 cells, collected, and aliquoted.
(§2) HIV-1 infectivity was determined by two distinct methods; an ELISA measuring HIV-1 core protein p24 production and a colorimetric assay for HIV-mediated cytopathogenesis. Briefly, 1×10^4 MT-2 cells in 96 well plates were infected with dilutions of HIV-1IIIB in 200 μl RPMI 1640 medium with 10% FBS. After 24 hrs., half of the culture medium was changed. On the fourth day after incubation at 37° C., 100 μl of culture supernatant was collected from each well and an equal volume of fresh medium was added to the wells. The collected supernatants were mixed with equal volumes of 5% Triton X-100 and assayed for p24 using a kit from Coulter Immunology (Hialeah, FL). On the sixth day post infection, an indicator XTT tetrazolium dye (1 mg/ml; 50μl/well; PolySciences, Inc., Warrington, Pa.) was added to the cells. After a 4 hr. period, intracellular formazan was determined calorimetrically at 450 nm. The percentage of cytopathogenesis was calculated using the following formula: [(OD450 in negative control-OD450 in experiment)/(OD450 in negative control-OD450 in positive control)] ×100.

HIV-1 isolate MN = experiment: Inhibition of infection by HIV-1 isolate MN; assay type: cell-based; conditions: FIG. 6
Method: as §1, §2

HIV-1 isolate RF = experiment: Inhibition of infection by HIV-1 isolate RF; assay type: cell-based; conditions: FIG. 6
Method: as §1, §2

HIV-1IIIB [2] = experiment: Inhibition of HIV-1IIIB-mediated cytopathogenesis in MT-2 cells (XTT colorimetric assay); assay type: cell-based
Method: as §1, §2
Additionally, studies were performed to determine whether or not any of the peptides could inhibit the cytopathogenesis mediated by HIV-1.

HIV-1IIIB [3] = experiment: Inhibition of HIV-1IIIB replication in MT-2 cells (p24 ELISA); assay type: cell-based
Method: as §1, §2
Twenty-nine peptides from HIV-1IIIB gp160 (gp120/gp41) and 21 peptides from V3 hypervariable loops of distinct HIV-1 isolates were screened for their inhibitory activity on HIV-1 replication and HIV-1-mediated cytopathogenesis in MT-2 cells.

[4] = test system: AZT-resistant mutant of HIV-1; experiment: Inhibition of infection by AZT-resistant HIV-1 mutant; assay type: cell-based; conditions: FIG. 6
Method: as §1, §2

HIV-1 = conditions: FIG. 7
Method: Rabbit antiserum directed against this peptide was prepared. […] The mixture was tested for antiviral activity.

HIV-1IIIB [5] = experiment: Inhibition of HIV-1IIIB replication in U937 cells (p24 production); assay type: cell-based; conditions: monocytic cell line U937, FIG. 4
Method: as §1, §2

MT-2 cells = experiment: Cytotoxicity of peptides for MT-2 cells; conditions: for cytotoxicity: MT-2 cells
Method: Subsequently, cytotoxicity studies were performed using MT-2 cells at a final concentration of 12.5 μg/ml.

I: EWDREINNYTSLIHSLIEESQNQQEKNEQEGGC / II: EWDREINNYTSLIHSLIEESQNQQEKNEQEGGC (disulfide I:33-II:33) [peptide (637-666)]
ED50 for inhibition of cell fusion ([1]; HIV-1IIIB infected H9 cells, FIG. 5): 160.0 nM | inhibition of cell fusion, dimer compared with monomer ([1]; comparative assay, FIG. 8): much more effective | inhibition of infection (replication and cytopathogenesis) (HIV-1 isolate SF2): effectively inhibited infections | inhibition of infection (replication and cytopathogenesis) (HIV-1 isolate MN): effectively inhibited infections | inhibition of infection (replication and cytopathogenesis) (HIV-1 isolate RF): effectively inhibited infections | ED50 for inhibition of cytopathogenesis mediated by HIV-1IIIB (HIV-1IIIB [2]; MT-2 cells, FIG. 5): 142.0 nM | inhibition of cytopathogenesis mediated by HIV-1 (HIV-1IIIB [2]; MT-2 cells, HIV-1IIIB, FIG. 2): markedly inhibited cytopathogenesis | inhibition of HIV-1-mediated cytopathogenesis, dimer compared with monomer (HIV-1IIIB [2]; comparative assay, FIG. 8): much more effective | inhibition of infection (replication and cytopathogenesis) (HIV-1IIIB [3]; HIV-1 isolate IIIB, FIG. 6): effectively inhibited infections | ED50 for inhibition of HIV-1IIIB replication (decrease of gag protein p24 production) (HIV-1IIIB [3]; MT-2 cells, FIG. 5): 101.0 nM | inhibition of HIV-1 replication, dimer compared with monomer (HIV-1IIIB [3]; comparative assay, FIG. 8): much more effective | inhibition of HIV-1 replication (decrease of gag protein p24 synthesis) (HIV-1IIIB [3]; final concentration 12.5 μg/ml, MT-2 cells, HIV-1IIIB, FIG. 1): significantly inhibited HIV-1 replication | inhibition of infection (replication and cytopathogenesis) [4]: effectively inhibited infections | inhibitory activity on p24 production after incubation with antiserum (HIV-1; peptide 1 μg/ml incubated with rabbit anti-(637-666) antiserum, 37° C., 30 minutes): significantly blocked | inhibition of p24 production (HIV-1; peptide 1 μg/ml, in the absence of antiserum): significantly inhibited p24 production | inhibition of p24 production (HIV-1IIIB [5]): significantly inhibited p24 production | cytotoxicity (MT-2 cells; concentration increased to 11.145 μM): significant cytotoxicity remained undetectable | cytotoxicity (MT-2 cells; final concentration 12.5 μg/ml, FIG. 3): did not exhibit any cytotoxicity | 50% cytotoxic dose (CD50) (MT-2 cells; colorimetric assay): > 11,145 nM

Cc1cn([C@H]2C[C@H](N=[N+]=[N-])[C@@H](CO)O2)c(=O)[nH]c1=O [AZT, 3'azido-3'deoxythymidine, reference compound]
inhibition of infection (replication and cytopathogenesis) [4]: could not be effectively neutralized
